Experimental data: ChEMBL document CHEMBL1201862, “PubChem BioAssay data set” (2004)
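Dose response: 5 concentrations. Exposure: 48 h. Format: 96-well plates. Endpoint: linear interpolation; highest concentration if not reached. Abbreviation: GI50, concentration required for 50% inhibition of growth.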 The source made the active and inactive calls. Cut-off read from the data, not from the text of the source: active = GI50 up to about 1.1 µM and inactive = higher.

Tests used:
Experiment in all cases: DTP human tumour cell line panel, 48 h
M14 = tested on: M14
MDA-MB-435 = tested on: MDA-MB-435
IGROV-1 = tested on: IGROV-1
RXF 393 = tested on: RXF 393
SK-MEL-28 = tested on: SK-MEL-28
RPMI-8226 = tested on: RPMI-8226
EKVX = tested on: EKVX
NCI-H23 = tested on: NCI-H23
PC-3 = tested on: PC-3
NCI-H460 = tested on: NCI-H460
SN12C = tested on: SN12C
MDA-MB-231 = tested on: MDA-MB-231
SNB-19 = tested on: SNB-19
OVCAR-4 = tested on: OVCAR-4
SK-MEL-2 = tested on: SK-MEL-2
SF-539 = tested on: SF-539
BT-549 = tested on: BT-549
SW-620 = tested on: SW-620
MCF7 = tested on: MCF7
MOLT-4 = tested on: MOLT-4
ACHN = tested on: ACHN
SK-OV-3 = tested on: SK-OV-3
MDA-N = tested on: MDA-N
T47D = tested on: T47D
SK-MEL-5 = tested on: SK-MEL-5
UO-31 = tested on: UO-31
OVCAR-3 = tested on: OVCAR-3
TK-10 = tested on: TK-10
A549 = tested on: A549
CAKI-1 = tested on: CAKI-1
786-0 = tested on: 786-0
SR = tested on: SR
UACC-257 = tested on: UACC-257
UACC-62 = tested on: UACC-62
NCI-H226 = tested on: NCI-H226
Hs-578T = tested on: Hs-578T
KM12 = tested on: KM12
LOX IMVI = tested on: LOX IMVI
COLO 205 = tested on: COLO 205
OVCAR-5 = tested on: OVCAR-5
HCT-116 = tested on: HCT-116
SF-268 = tested on: SF-268
HCC 2998 = tested on: HCC 2998
SF-295 = tested on: SF-295
HCT-15 = tested on: HCT-15
CCRF-CEM = tested on: CCRF-CEM
Malme-3M = tested on: Malme-3M
HOP-62 = tested on: HOP-62
HOP-92 = tested on: HOP-92
OVCAR-8 = tested on: OVCAR-8
HT-29 = tested on: HT-29
NCI-H522 = tested on: NCI-H522
U-251 = tested on: U-251
A498 = tested on: A498
HL-60 = tested on: HL-60
SNB-75 = tested on: SNB-75
NCI/ADR-RES = tested on: NCI/ADR-RES
K562 = tested on: K562
DU-145 = tested on: DU-145

CCCCCCCCCC1CC(=O)NCC(=O)NC(C(C)C)C(=O)NC(CC(C)C)C(=O)NC(C)C(=O)NC(C(C)C)C(=O)O1 (stereo not drawn)
GI50 (M14): 20.2 µM (inactive) | GI50 (MDA-MB-435): 10.4 µM (inactive) | GI50 (IGROV-1): 31.9 µM (inactive) | GI50 (RXF 393): 35.3 µM (inactive) | GI50 (SK-MEL-28): 15.2 µM (inactive) | GI50 (RPMI-8226): 17.1 µM (inactive) | GI50 (EKVX): 21.5 µM (inactive) | GI50 (NCI-H23): 13.6 µM (inactive) | GI50 (PC-3): 6.9 µM (inactive) | GI50 (NCI-H460): 5.38 µM (inactive) | GI50 (SN12C): 19.1 µM (inactive) | GI50 (MDA-MB-231): 10.2 µM (inactive) | GI50 (SNB-19): 18.7 µM (inactive) | GI50 (OVCAR-4): 4.76 µM (inactive) | GI50 (SK-MEL-2): 25.2 µM (inactive) | GI50 (SF-539): 19.1 µM (inactive) | GI50 (BT-549): 11.4 µM (inactive) | GI50 (SW-620): 3.84 µM (inactive) | GI50 (MCF7): 17.8 µM (inactive) | GI50 (MOLT-4): 13.3 µM (inactive) | GI50 (ACHN): > 79.8 µM (inactive) | GI50 (SK-OV-3): 16.6 µM (inactive) | GI50 (MDA-N): 17.1 µM (inactive) | GI50 (T47D): 20.5 µM (inactive) | GI50 (SK-MEL-5): 17.3 µM (inactive) | GI50 (UO-31): > 100 µM (inactive) | GI50 (OVCAR-3): 9.59 µM (inactive) | GI50 (TK-10): 24.3 µM (inactive) | GI50 (A549): 17.2 µM (inactive) | GI50 (CAKI-1): > 100 µM (inactive) | GI50 (786-0): 12.2 µM (inactive) | GI50 (SR): 13.3 µM (inactive) | GI50 (UACC-257): 38.8 µM (inactive) | GI50 (UACC-62): 25.1 µM (inactive) | GI50 (NCI-H226): 36.6 µM (inactive) | GI50 (Hs-578T): 18 µM (inactive) | GI50 (KM12): 6.79 µM (inactive) | GI50 (LOX IMVI): 7.96 µM (inactive) | GI50 (COLO 205): 50.4 µM (inactive) | GI50 (OVCAR-5): 38.4 µM (inactive) | GI50 (HCT-116): 14.8 µM (inactive) | GI50 (SF-268): 4.55 µM (inactive) | GI50 (HCC 2998): > 42.7 µM (inactive) | GI50 (SF-295): 13.3 µM (inactive) | GI50 (HCT-15): > 100 µM | GI50 (CCRF-CEM): 15.7 µM (inactive) | GI50 (Malme-3M): 22.6 µM (inactive) | GI50 (HOP-62): 22.5 µM (inactive) | GI50 (HOP-92): 15.5 µM (inactive) | GI50 (OVCAR-8): 6.03 µM (inactive) | GI50 (HT-29): 5.9 µM (inactive) | GI50 (NCI-H522): 14 µM (inactive) | GI50 (U-251): 12.8 µM (inactive) | GI50 (A498): 1.36 µM (inactive) | GI50 (HL-60): 56.1 µM (inactive) | GI50 (SNB-75): 12.3 µM (inactive) | GI50 (NCI/ADR-RES): > 100 µM (inactive) | GI50 (K562): 16.8 µM (inactive) | GI50 (DU-145): 21.9 µM (inactive)

O=S(=O)(CC#CCS(=O)(=O)c1ccccc1)c1ccccc1
GI50 (M14): 1.86 µM (inactive) | GI50 (MDA-MB-435): 1.72 µM (inactive) | GI50 (IGROV-1): 1.44 µM (inactive) | GI50 (RXF 393): 1.67 µM (inactive) | GI50 (SK-MEL-28): 7.46 µM (inactive) | GI50 (RPMI-8226): 1.23 µM (inactive) | GI50 (EKVX): 5.09 µM (inactive) | GI50 (NCI-H23): 2.98 µM (inactive) | GI50 (PC-3): 7.45 µM (inactive) | GI50 (NCI-H460): 12.6 µM (inactive) | GI50 (SN12C): 4.28 µM (inactive) | GI50 (MDA-MB-231): 11.6 µM (inactive) | GI50 (SNB-19): 16.3 µM (inactive) | GI50 (OVCAR-4): 1.84 µM (inactive) | GI50 (SK-MEL-2): 5.69 µM (inactive) | GI50 (SF-539): 2.48 µM (inactive) | GI50 (BT-549): 3.13 µM (inactive) | GI50 (SW-620): 0.891 µM (active) | GI50 (MCF7): 1.99 µM (inactive) | GI50 (MOLT-4): 0.959 µM (active) | GI50 (ACHN): 1.79 µM (inactive) | GI50 (SK-OV-3): 13.4 µM (inactive) | GI50 (MDA-N): 1.77 µM (inactive) | GI50 (T47D): 1.95 µM (inactive) | GI50 (SK-MEL-5): 4.9 µM (inactive) | GI50 (UO-31): 1.42 µM (inactive) | GI50 (OVCAR-3): 1.55 µM (inactive) | GI50 (TK-10): 2.72 µM (inactive) | GI50 (A549): 19.1 µM (inactive) | GI50 (CAKI-1): 1.77 µM (inactive) | GI50 (786-0): 0.973 µM (active) | GI50 (SR): 2.66 µM (inactive) | GI50 (UACC-257): 4.32 µM (inactive) | GI50 (UACC-62): 3.55 µM (inactive) | GI50 (NCI-H226): 14.6 µM (inactive) | GI50 (Hs-578T): 5.14 µM (inactive) | GI50 (KM12): 12.4 µM (inactive) | GI50 (LOX IMVI): 1.51 µM (inactive) | GI50 (COLO 205): 1.95 µM (inactive) | GI50 (OVCAR-5): 4.63 µM (inactive) | GI50 (HCT-116): 1.01 µM (active) | GI50 (SF-268): 4.35 µM (inactive) | GI50 (HCC 2998): 18.7 µM (inactive) | GI50 (SF-295): 18.5 µM (inactive) | GI50 (HCT-15): 1.35 µM | GI50 (CCRF-CEM): 0.0982 µM (active) | GI50 (Malme-3M): 1.9 µM (inactive) | GI50 (HOP-62): 5.71 µM (inactive) | GI50 (HOP-92): 1.61 µM (inactive) | GI50 (OVCAR-8): 1.76 µM (inactive) | GI50 (HT-29): 6.68 µM (inactive) | GI50 (NCI-H522): 0.659 µM (active) | GI50 (U-251): 8.55 µM (inactive) | GI50 (A498): 16.1 µM (inactive) | GI50 (HL-60): 3.1 µM (inactive) | GI50 (SNB-75): 1.48 µM (inactive) | GI50 (NCI/ADR-RES): 3.72 µM (inactive) | GI50 (K562): 1.58 µM (inactive) | GI50 (DU-145): 4.91 µM (inactive)
